Source: US20160115167A1, “BMP INHIBITORS AND METHODS OF USE THEREOF” (THE BRIGHAM AND WOMEN'S HOSPITAL, INC., priority 2013, published 2016)

System: BMP7 induced pSMAD1/5/8 in BMPR2−/− and TGF-β1 induced pSMAD2
Test: Western blot, BMP7 vs TGF-beta induced pSMAD in PASMCs
Type: cell-based, mice
Conditions: versus LDN-193189; BMPR2-deficient and wild type PASMCs; FIGS. 5b and 5c
Protocol: C2C12 […] cells stably transfected with BMP responsive element from the Idl promoter fused to luciferase reporter gene (BRE-Luc) and human embryonic kidney 293T cells stably transfected with the TGF-β responsive element from the PAI-1 promoter fused to luciferase reporter gene (CAGA-Luc) were cultured in DMEM (Life Technologies) supplemented with 10% FBS, L-glutamine, and pen/strep at 37° C. and 10% CO2. HepG2 human hepatoma cells (ATCC) were cultured in EMEM (Life Technologies) supplemented with 10% FBS, L-glutamine, and pen/strep at 37° C. and 10% CO2. C2C12 […] (ATCC) were cultured in DMEM (Life Technologies) supplemented with 10% FBS, L-glutamine, and pen/strep at 37° C. and 10% CO2. […]
Both WT and BMPR2^del/del PASMCs were seeded in 12-well plates (Falcon®; BD Biosciences) at 75% confluency (˜375,000 cells in 480 μL per well). […] The phosphorylation state of downstream effector proteins (pSMAD1/5/8 and pSMAD2 for BMP and TGF-β respectively) was measured by western blotting performed 30 minutes after ligand stimulation. Western blots were analyzed using ImageJ with positive controls at 100% ligand induced phospho-SMAD and negative controls being subtracted as background. […]

Q: For `c1cc(-c2cnn3cc(-c4ccc(N5CCNCC5)cc4)cnc23)c2cccnc2c1` [LDN-212854], which “selectivity, BMP7 induced pSMAD1/5/8 versus TGF-β1 induced pSMAD2” value is on record?
A: Its value is “improved selectivity”.
